Test results reported in patent US11357769B2, “Drug combinations for reducing cell viability and/or cell proliferation” (Eisai R&D Management Co., Ltd., priority 2016, dated 2022).

System: Hep3B xenograft
Assay: Antitumor activity in Hep3B xenograft model of hepatocellular carcinoma
Format: in vivo, mice
Settings: 17 days
Description: The human hepatocellular cancer cell line Hep3B was cultured in RPMI1640 medium containing 10% fetal bovine serum at 37° C. in a 5% CO2 atmosphere and kept in exponential growth phase. […] When the mean tumor volume (TV) reached approximately 170 mm^3 (10 days after implantation), 56 mice were selected based on their TVs, and were sorted into 7 treatment groups with 8 animals per group. […] Body weights were measured daily and tumor measurements were performed twice weekly.
[formula] where Day X is any day of measurement.
The anti-tumor effects of the treatment, Partial (PR) and complete regression (CR), stable (SD) and progressive (PD) disease were defined by the H3 Xenograft Model Response Criteria (Appendix 4). […] The relative body weight changes were analyzed by two way ANOVA followed by Dunnett's post hoc.

C=CC(=O)Nc1cc(N2CCN(CC)CC2)ccc1Nc1cc(N(C)C(=O)Nc2c(Cl)c(OC)cc(OC)c2Cl)ncn1 [Compound 1, N-(2-((6-(3-(2,6-dichloro-3,5-dimethoxyphenyl)-1-methylureido)pyrimidin-4-yl)amino)-5-(4-ethylpiperazin-1-yl)phenyl)acrylamide]
Tumor Growth Inhibition (TGI) (Compound 1 single agent 100 mg/kg PO): 16% | Tumor Growth Inhibition (TGI) (Compound 1 single agent 300 mg/kg PO, p<0.05 vs vehicle): 64%
